Where two headings read alike, the source gives them in different places.
Legend:
[1] = test system: Mice; assay: corneal kindling; format: in vivo
Excerpt: Mice are kindled electrically with 3 sec stimulation, 8 mA, 60 Hz, and corneal electrodes to a criterion of 10 consecutive Stage 5 seizures (facial clonus and head nodding progressing to forelimb clonus, and finally rearing and falling accompanied by a generalized clonic seizure as described by Racine). Stage 5 is generally reached after twice daily stimulation for 8 days. With continued stimulation once a day, animals usually progress to a reproducible Stage 5 after 10-14 additional days. At least 72 hours after the mice have been kindled, the test substance is administered either i.p. or p.o. and, at the previously determined TPE, each animal is given the electrical stimulus indicated above. Following stimulation, the animals are observed for the presence or absence of the rearing and falling criteria of a Stage 5 seizure. Treated animals not displaying a Stage 3, 4, or 5 seizure are considered protected. The dose of the test substance is varied between the limits of 0 and 100% efficacy, and the ED50 (mean effective dose) and 95% confidence intervals calculated by probit analysis. Mean values and the S.E.M. are calculated for the length of clonus and seizure duration and p values are determined by the Student's t-test

[2] = target: GABAB receptor (Rattus norvegicus, UniProt Q9Z0U4); assay: biochemical
[3] = target: T1, mGAT1 (Mus musculus, UniProt P31648); assay: [3H]GABA uptake at mouse GABA transporters, HEK-293 cells; format: cell-based
T1 construct: expressed in transfected cells
Experimental: (§1) Cortical neurons were cultured essentially as previously described by removing the neopallium of 15-day old NMRI embryos by dissection followed by mild trypsination. Hertz E, Yu A C H, Hertz L, Juurlink B H J and Schousboe A. Preparation of Primary Cultures of Mouse Cortical Neurons, in A Dissection and Tissue Culture Manual of the Nervous System (Shahar A, de Vellis J, Vernadakis A and Haber B eds) pp 183-186, Alan R. Liss, Inc., New York, 198. The neurons were cultured in 10% fetal calf serum and, after 48 h, cytosine arabinoside was added to a final concentration of 20 μM to prevent glial proliferation. Four cultures of stably transfected Human Embryonic Kidney (HEK)-293 cells expressing mGAT1-4 were prepared by the method previously reported. […] J Pharmacol Exp Ther. 2002, 302, 636-644 The stable cell lines are under the selection pressure of blasticidin-S at 5 μg/mL. Determinations of the IC50 values were conducted as described earlier. […] Radioactivity was measured using Microscint™ 20 scintillation fluid (PerkinElmer) and a Packard TopCount microplate scintillation counter.

[4] = target: T2, mGAT4 (Mus musculus, UniProt P31650); assay: as above; format: cell-based
T2 construct: expressed in transfected cells
Experimental: as §1

[5] = target: T3, mGAT2 (Mus musculus, UniProt P31651); assay: as above; format: cell-based
T3 construct: expressed in transfected cells
Experimental: as §1

[6] = target: T4, mGAT3 (Mus musculus, UniProt P31649); assay: as above; format: cell-based
T4 construct: expressed in transfected cells
Experimental: as §1

[7] = test system: Sprague Dawley rats; assay: cocaine induced dopamine surge in nucleus accumbens (FIG. 3); conditions: 1 mg/kg single dose
[8] = test system: Wistar Albino rats; format: in vivo; conditions: 20 mg/kg versus vigabatrin 200 mg/kg, 45 and 90 days
Experimental: […]. The formulations for each treatment group were prepared fresh weekly in 0.9% normal saline.
All animals were acclimated for 7 days to the test facility prior to the start of dosing and were housed in individual polycarbonate cages. The cage environment uses a standard 12 hr/12 hr light dark cycle, with standard industrial fluorescent lighting during the light cycle. During the course of the study, the animals were monitored for mortality, moribundity, clinical signs of illness, feed intake, and body weight change. Any animals found in distress for more than 24 hours were humanely euthanized. […]. […] At the conclusion of the dosing phase (5 of each sex for 45 days and 10 of each sex for 90 days), the animals entered a 5-7 day “washout” period, after which electroretinograms (ERGs) were measured for both eyes. The animals were then humanely euthanized, by CO2 asphyxiation in accordance with AVMA guidelines on euthanasia, for post-mortem pathology examinations. […]
The electroretinograms were measured with an Espion^2 ERG system with ColorDome Ganzfeld type illuminator by Diagnosys. […]

[9] = test system: Sprague-Dawley rats; assay: μPET imaging of 11C-raclopride binding after cocaine
[10] = test system: Sprague-Dawley rats; conditions: for time spent in chamber, first printed value / time spent in chamber, second printed value: 1.0 mg/kg i.p.
[11] = test system: cortical neurons; assay: [3H]GABA uptake in cultured cortical neurons; format: cell-based; conditions: Mus musculus, Cortical neurone; read-out: neuron uptake IC50
Experimental: as §1

[12] = test system: Rat; assay: subcutaneous Metrazol seizure threshold test (scMET); format: in vivo; conditions: 7 days IP, 20 mg/kg dose only, Metrazol 70 mg/kg
Experimental: Subcutaneous injection of the convulsant Metrazol produces clonic seizures in laboratory animals. […] Animals are pretreated with various doses of the test compound given by i.p. injection. At the previously determined TPE of the test compound, the dose of Metrazol which will induce convulsions in 97% of animals (CD97; 85 mg/kg mice) is injected into a loose fold of skin in the midline of the neck. The animals are placed in isolation cages to minimize stress (Swinyard et al, 1961) and observed for the next 30 minutes for the presence or absence of a seizure. An episode of clonic spasms, approximately 3-5 seconds, of the fore and/or hindlimbs, jaws, or vibrissae is taken as the endpoint.

[13] = cocaine/saline+compound pairings, cocaine 20 mg/kg
[14] = saline/Compound 2 (CPP-115) pairings

T3 sequence (P31651 whole entry): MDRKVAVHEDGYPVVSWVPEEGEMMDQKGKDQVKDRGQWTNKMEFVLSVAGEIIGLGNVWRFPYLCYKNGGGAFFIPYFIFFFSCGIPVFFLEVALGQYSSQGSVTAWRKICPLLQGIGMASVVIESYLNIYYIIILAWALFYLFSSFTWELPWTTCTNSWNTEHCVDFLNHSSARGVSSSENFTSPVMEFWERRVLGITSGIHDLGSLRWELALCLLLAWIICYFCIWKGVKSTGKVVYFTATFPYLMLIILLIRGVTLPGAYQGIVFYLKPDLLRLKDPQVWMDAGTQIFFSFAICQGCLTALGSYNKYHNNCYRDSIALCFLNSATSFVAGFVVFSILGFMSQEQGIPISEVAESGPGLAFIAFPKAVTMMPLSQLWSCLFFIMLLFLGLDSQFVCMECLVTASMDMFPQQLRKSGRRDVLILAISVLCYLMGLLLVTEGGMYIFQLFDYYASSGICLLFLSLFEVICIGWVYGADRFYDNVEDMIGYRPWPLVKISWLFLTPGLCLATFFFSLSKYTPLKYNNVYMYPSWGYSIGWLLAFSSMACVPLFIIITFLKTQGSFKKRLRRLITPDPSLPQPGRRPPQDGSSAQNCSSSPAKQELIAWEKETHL
T2 sequence (P31650 whole entry): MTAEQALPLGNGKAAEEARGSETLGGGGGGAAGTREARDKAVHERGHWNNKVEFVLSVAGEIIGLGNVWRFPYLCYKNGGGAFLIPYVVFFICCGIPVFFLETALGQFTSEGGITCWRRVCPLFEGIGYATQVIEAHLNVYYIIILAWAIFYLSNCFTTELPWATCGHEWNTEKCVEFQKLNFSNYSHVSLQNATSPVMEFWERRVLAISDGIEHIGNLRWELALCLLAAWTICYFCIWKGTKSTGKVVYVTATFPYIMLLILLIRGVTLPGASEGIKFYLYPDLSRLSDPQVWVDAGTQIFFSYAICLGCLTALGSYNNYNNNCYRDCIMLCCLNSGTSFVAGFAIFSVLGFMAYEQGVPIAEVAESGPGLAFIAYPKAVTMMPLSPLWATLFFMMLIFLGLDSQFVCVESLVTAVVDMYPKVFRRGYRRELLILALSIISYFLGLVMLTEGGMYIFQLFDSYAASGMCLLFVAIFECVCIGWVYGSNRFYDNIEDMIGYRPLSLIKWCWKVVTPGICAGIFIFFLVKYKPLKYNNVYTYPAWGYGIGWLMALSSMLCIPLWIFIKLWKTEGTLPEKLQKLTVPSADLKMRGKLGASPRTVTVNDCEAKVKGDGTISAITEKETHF
T4 sequence (P31649 whole entry): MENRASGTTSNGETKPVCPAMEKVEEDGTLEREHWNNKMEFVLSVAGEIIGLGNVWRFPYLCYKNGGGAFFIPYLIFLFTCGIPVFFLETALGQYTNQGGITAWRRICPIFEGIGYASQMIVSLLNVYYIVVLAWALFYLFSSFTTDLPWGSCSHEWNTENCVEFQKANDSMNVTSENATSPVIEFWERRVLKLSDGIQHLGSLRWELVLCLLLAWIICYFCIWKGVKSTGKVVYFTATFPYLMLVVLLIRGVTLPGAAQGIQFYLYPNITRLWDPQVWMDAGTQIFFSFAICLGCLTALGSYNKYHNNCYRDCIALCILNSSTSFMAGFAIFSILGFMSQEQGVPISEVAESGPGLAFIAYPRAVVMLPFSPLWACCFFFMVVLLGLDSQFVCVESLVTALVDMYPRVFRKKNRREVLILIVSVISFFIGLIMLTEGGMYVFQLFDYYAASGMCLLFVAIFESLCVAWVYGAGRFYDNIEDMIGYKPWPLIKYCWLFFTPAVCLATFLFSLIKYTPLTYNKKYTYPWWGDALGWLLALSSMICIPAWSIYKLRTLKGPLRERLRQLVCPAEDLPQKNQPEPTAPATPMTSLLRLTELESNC
GABAB receptor, sequence (Q9Z0U4 17-960 limits assumed): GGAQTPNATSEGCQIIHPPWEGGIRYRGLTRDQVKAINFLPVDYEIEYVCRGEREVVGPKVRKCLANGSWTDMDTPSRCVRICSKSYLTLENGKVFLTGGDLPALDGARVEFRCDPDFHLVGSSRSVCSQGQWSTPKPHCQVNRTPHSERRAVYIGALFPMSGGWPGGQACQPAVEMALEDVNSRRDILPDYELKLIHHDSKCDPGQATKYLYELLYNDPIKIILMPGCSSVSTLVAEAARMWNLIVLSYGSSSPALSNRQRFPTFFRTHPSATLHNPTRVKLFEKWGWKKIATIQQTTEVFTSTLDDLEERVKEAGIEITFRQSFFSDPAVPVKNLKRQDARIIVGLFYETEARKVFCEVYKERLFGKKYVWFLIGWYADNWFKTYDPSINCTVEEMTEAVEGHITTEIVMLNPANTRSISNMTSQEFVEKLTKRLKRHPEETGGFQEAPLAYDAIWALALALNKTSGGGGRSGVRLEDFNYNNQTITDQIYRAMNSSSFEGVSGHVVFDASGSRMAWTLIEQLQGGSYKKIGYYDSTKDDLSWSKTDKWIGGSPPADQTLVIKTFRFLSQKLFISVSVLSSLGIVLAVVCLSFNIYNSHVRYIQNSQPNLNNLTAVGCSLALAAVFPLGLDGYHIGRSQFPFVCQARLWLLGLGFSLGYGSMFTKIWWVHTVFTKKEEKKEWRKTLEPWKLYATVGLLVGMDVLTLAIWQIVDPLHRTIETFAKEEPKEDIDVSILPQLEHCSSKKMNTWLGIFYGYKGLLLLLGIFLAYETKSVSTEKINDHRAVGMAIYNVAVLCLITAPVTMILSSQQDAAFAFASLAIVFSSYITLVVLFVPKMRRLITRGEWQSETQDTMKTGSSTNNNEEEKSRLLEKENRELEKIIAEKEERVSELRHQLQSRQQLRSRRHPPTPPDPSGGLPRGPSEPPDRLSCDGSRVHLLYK
GABAB receptor, sequence (O88871 41-940 partner): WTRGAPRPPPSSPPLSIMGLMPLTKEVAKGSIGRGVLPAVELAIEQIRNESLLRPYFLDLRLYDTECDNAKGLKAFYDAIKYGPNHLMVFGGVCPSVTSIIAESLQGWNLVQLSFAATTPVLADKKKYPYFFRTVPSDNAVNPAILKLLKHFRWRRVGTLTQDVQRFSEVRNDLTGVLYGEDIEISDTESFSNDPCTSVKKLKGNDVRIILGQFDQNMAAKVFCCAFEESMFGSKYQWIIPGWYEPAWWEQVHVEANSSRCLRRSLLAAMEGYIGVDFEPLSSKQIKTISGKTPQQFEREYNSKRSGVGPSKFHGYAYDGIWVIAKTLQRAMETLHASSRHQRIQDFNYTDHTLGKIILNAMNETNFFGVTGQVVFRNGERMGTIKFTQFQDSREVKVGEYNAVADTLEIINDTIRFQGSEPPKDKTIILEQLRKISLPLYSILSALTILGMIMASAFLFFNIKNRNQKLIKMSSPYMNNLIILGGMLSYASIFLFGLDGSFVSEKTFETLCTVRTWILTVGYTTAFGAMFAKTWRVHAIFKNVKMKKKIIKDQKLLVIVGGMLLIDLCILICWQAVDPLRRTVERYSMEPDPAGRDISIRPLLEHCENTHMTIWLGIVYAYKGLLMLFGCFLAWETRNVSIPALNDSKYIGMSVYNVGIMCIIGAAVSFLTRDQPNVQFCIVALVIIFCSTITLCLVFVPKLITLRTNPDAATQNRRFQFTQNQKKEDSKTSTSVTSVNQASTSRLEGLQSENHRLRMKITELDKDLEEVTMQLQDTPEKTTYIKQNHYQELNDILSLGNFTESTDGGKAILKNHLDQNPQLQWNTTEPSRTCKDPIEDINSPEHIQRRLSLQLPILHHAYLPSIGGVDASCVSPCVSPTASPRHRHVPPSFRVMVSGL

## N[C@H]1C[C@@H](C(=O)O)CC1=C(F)F [CPP-115]
[1]; Single IP drug dose, primed @ 8 mA, 60 Hz, 3 secs, for 8 days
  Corn. Kind. TPE: TPE 4 hours
[1]; ip, 192 h, read-out: Corn. Kind. ED50
  ED50: 20.1 mg/kg
[2]
  IC50: > 100 µM
[3]
  IC50: > 1000 µM
[4]
  IC50: > 1000 µM
[5]
  IC50: > 1000 µM
[6]
  IC50: > 1000 µM
[7]
  dopamine levels after cocaine challenge: less than 300 times baseline
[8]
  visual field defects compared with vigabatrin: less visual field defects than vigabatrin
[9]; 0.5 mg/kg versus 300 mg/kg
  effective dose, times lower than the 300 mg/kg dose of vigabatrin: 600 times
[9]; 0.5 mg/kg, 2.5 h before cocaine 5.0 mg/kg i.v.
  effect on cocaine-induced increases in synaptic dopamine: complete blockade of cocaine-induced increases in synaptic dopamine
[9]; μPET and CPP, summary statement
  dose blocking cocaine-induced dopamine increase and CPP, times lower than vigabatrin: 100 times
[10]; 1.0 mg/kg i.p. 2.5 h before test, cocaine 20 mg/kg, listed as 2
  expression of cocaine-induced CPP: blocked the expression of cocaine-induced CPP
[10]; 1.0 mg/kg versus vigabatrin 300 mg/kg
  effect on cocaine-induced CPP relative to vigabatrin: 300 times
[10]; [13]
  time spent in chamber, first printed value: 7.9 ± 1.5 min
  time spent in chamber, second printed value: 7.1 ± 1.9 min
[10]; [14]
  time spent in chamber, first printed value: 8.1 ± 3.2 min
  time spent in chamber, second printed value: 6.9 ± 3.9 min
[11]
  IC50: > 1000 µM
[12]
  scMET protection: No protection
